Test results taken from the NIST ThermoML archive (doi:10.1021/je4004806).

Assay: xn = mol fraction of the nth substance listed
Conditions: 101 kPa, Liquid; for viscosity: Capillary tube (Ostwald / Ubbelohde) method; for mass density: Vibrating tube method

CCCCCCCC [octane] + CCCCO
Conditions | mass density [kg/m3] | viscosity [mPa·s]
293.15 K, x1 = 0.0967 | 792 | 2.243
293.15 K, x1 = 0.1999 | 775.92 | 1.722
293.15 K, x1 = 0.3022 | 761.86 | 1.363
293.15 K, x1 = 0.4064 | 749.45 | 1.078
293.15 K, x1 = 0.4995 | 739.67 | 0.903
293.15 K, x1 = 0.6004 | 730.23 | 0.766
293.15 K, x1 = 0.7002 | 721.95 | 0.672
293.15 K, x1 = 0.7999 | 714.61 | 0.603
293.15 K, x1 = 0.8991 | 708.11 | 0.571
293.15 K, x1 = 1 | 702.54 | 0.545
298.15 K, x1 = 0.0967 | 788.1 | 1.983
298.15 K, x1 = 0.1999 | 771.93 | 1.537
298.15 K, x1 = 0.3022 | 757.83 | 1.223
298.15 K, x1 = 0.4064 | 745.37 | 0.974
298.15 K, x1 = 0.4995 | 735.56 | 0.826
298.15 K, x1 = 0.6004 | 726.12 | 0.709
298.15 K, x1 = 0.7002 | 717.8 | 0.626
298.15 K, x1 = 0.7999 | 710.5 | 0.565
298.15 K, x1 = 0.8991 | 704 | 0.537
298.15 K, x1 = 1 | 698.49 | 0.513
303.15 K, x1 = 0.0967 | 784.17 | 1.762
303.15 K, x1 = 0.1999 | 767.92 | 1.375
303.15 K, x1 = 0.3022 | 753.77 | 1.102
303.15 K, x1 = 0.4064 | 741.27 | 0.885
303.15 K, x1 = 0.4995 | 731.43 | 0.758
303.15 K, x1 = 0.6004 | 721.97 | 0.655
303.15 K, x1 = 0.7002 | 713.65 | 0.584
303.15 K, x1 = 0.7999 | 706.35 | 0.529
303.15 K, x1 = 0.8991 | 699.87 | 0.503
303.15 K, x1 = 1 | 694.44 | 0.485
308.15 K, x1 = 0.0967 | 780.22 | 1.577
308.15 K, x1 = 0.1999 | 763.9 | 1.232
308.15 K, x1 = 0.3022 | 749.68 | 0.996
308.15 K, x1 = 0.4064 | 737.13 | 0.809
308.15 K, x1 = 0.4995 | 727.27 | 0.698
308.15 K, x1 = 0.6004 | 717.79 | 0.609
308.15 K, x1 = 0.7002 | 709.47 | 0.546
308.15 K, x1 = 0.7999 | 702.18 | 0.497
308.15 K, x1 = 0.8991 | 695.72 | 0.473
308.15 K, x1 = 1 | 690.37 | 0.459
313.15 K, x1 = 0.0967 | 776.24 | 1.4
313.15 K, x1 = 0.1999 | 759.83 | 1.11
313.15 K, x1 = 0.3022 | 745.56 | 0.904
313.15 K, x1 = 0.4064 | 732.96 | 0.74
313.15 K, x1 = 0.4995 | 723.07 | 0.644
313.15 K, x1 = 0.6004 | 713.59 | 0.566
313.15 K, x1 = 0.7002 | 705.27 | 0.511
313.15 K, x1 = 0.7999 | 697.97 | 0.467
313.15 K, x1 = 0.8991 | 691.54 | 0.447
313.15 K, x1 = 1 | 686.29 | 0.433
318.15 K, x1 = 0.0967 | 772.22 | 1.258
318.15 K, x1 = 0.1999 | 755.73 | 1
318.15 K, x1 = 0.3022 | 741.39 | 0.821
318.15 K, x1 = 0.4064 | 728.75 | 0.679
318.15 K, x1 = 0.4995 | 718.84 | 0.595
318.15 K, x1 = 0.6004 | 709.35 | 0.527
318.15 K, x1 = 0.7002 | 701.03 | 0.479
318.15 K, x1 = 0.7999 | 693.72 | 0.44
318.15 K, x1 = 0.8991 | 687.33 | 0.42
318.15 K, x1 = 1 | 682.19 | 0.412
323.15 K, x1 = 0.0967 | 768.16 | 1.134
323.15 K, x1 = 0.1999 | 751.58 | 0.907
323.15 K, x1 = 0.3022 | 737.18 | 0.751
323.15 K, x1 = 0.4064 | 724.5 | 0.625
323.15 K, x1 = 0.4995 | 714.57 | 0.552
323.15 K, x1 = 0.6004 | 705.07 | 0.493
323.15 K, x1 = 0.7002 | 696.75 | 0.45
323.15 K, x1 = 0.7999 | 689.48 | 0.415
323.15 K, x1 = 0.8991 | 683.1 | 0.397
323.15 K, x1 = 1 | 678.08 | 0.392

CCCCCO [pentan-1-ol] + CCCCCCCC
Conditions | mass density [kg/m3] | viscosity [mPa·s]
293.15 K, x2 = 0 | 814.59 | 4.042
293.15 K, x2 = 0.1004 | 798.43 | 2.938
293.15 K, x2 = 0.201 | 783.65 | 2.237
293.15 K, x2 = 0.3001 | 770.3 | 1.695
293.15 K, x2 = 0.4 | 757.91 | 1.311
293.15 K, x2 = 0.4984 | 746.71 | 1.046
293.15 K, x2 = 0.5967 | 736.39 | 0.863
293.15 K, x2 = 0.6976 | 726.7 | 0.737
293.15 K, x2 = 0.7983 | 717.79 | 0.652
293.15 K, x2 = 0.8998 | 709.68 | 0.588
298.15 K, x2 = 0 | 810.93 | 3.518
298.15 K, x2 = 0.1004 | 794.68 | 2.568
298.15 K, x2 = 0.201 | 779.81 | 1.972
298.15 K, x2 = 0.3001 | 766.39 | 1.509
298.15 K, x2 = 0.4 | 753.94 | 1.18
298.15 K, x2 = 0.4984 | 742.7 | 0.953
298.15 K, x2 = 0.5967 | 732.34 | 0.796
298.15 K, x2 = 0.6976 | 722.64 | 0.685
298.15 K, x2 = 0.7983 | 713.72 | 0.605
298.15 K, x2 = 0.8998 | 705.59 | 0.55
303.15 K, x2 = 0 | 807.24 | 3.06
303.15 K, x2 = 0.1004 | 790.89 | 2.254
303.15 K, x2 = 0.201 | 775.94 | 1.747
303.15 K, x2 = 0.3001 | 762.45 | 1.349
303.15 K, x2 = 0.4 | 749.95 | 1.068
303.15 K, x2 = 0.4984 | 738.67 | 0.873
303.15 K, x2 = 0.5967 | 728.27 | 0.736
303.15 K, x2 = 0.6976 | 718.55 | 0.638
303.15 K, x2 = 0.7983 | 709.62 | 0.567
303.15 K, x2 = 0.8998 | 701.48 | 0.516
308.15 K, x2 = 0 | 803.53 | 2.659
308.15 K, x2 = 0.1004 | 787.09 | 1.984
308.15 K, x2 = 0.201 | 772.05 | 1.564
308.15 K, x2 = 0.3001 | 758.49 | 1.219
308.15 K, x2 = 0.4 | 745.93 | 0.971
308.15 K, x2 = 0.4984 | 734.6 | 0.802
308.15 K, x2 = 0.5967 | 724.18 | 0.682
308.15 K, x2 = 0.6976 | 714.44 | 0.596
308.15 K, x2 = 0.7983 | 705.49 | 0.532
308.15 K, x2 = 0.8998 | 697.35 | 0.486
313.15 K, x2 = 0 | 799.79 | 2.334
313.15 K, x2 = 0.1004 | 783.26 | 1.755
313.15 K, x2 = 0.201 | 768.13 | 1.393
313.15 K, x2 = 0.3001 | 754.5 | 1.11
313.15 K, x2 = 0.4 | 741.88 | 0.882
313.15 K, x2 = 0.4984 | 730.52 | 0.738
313.15 K, x2 = 0.5967 | 720.07 | 0.636
313.15 K, x2 = 0.6976 | 710.3 | 0.557
313.15 K, x2 = 0.7983 | 701.34 | 0.499
313.15 K, x2 = 0.8998 | 693.2 | 0.457
318.15 K, x2 = 0 | 796.03 | 2.042
318.15 K, x2 = 0.1004 | 779.4 | 1.557
318.15 K, x2 = 0.201 | 764.17 | 1.249
318.15 K, x2 = 0.3001 | 750.47 | 1.01
318.15 K, x2 = 0.4 | 737.81 | 0.807
318.15 K, x2 = 0.4984 | 726.4 | 0.681
318.15 K, x2 = 0.5967 | 715.92 | 0.589
318.15 K, x2 = 0.6976 | 706.14 | 0.521
318.15 K, x2 = 0.7983 | 697.16 | 0.47
318.15 K, x2 = 0.8998 | 689.02 | 0.431
323.15 K, x2 = 0 | 792.23 | 1.805
323.15 K, x2 = 0.1004 | 775.5 | 1.389
323.15 K, x2 = 0.201 | 760.18 | 1.117
323.15 K, x2 = 0.3001 | 746.41 | 0.911
323.15 K, x2 = 0.4 | 733.69 | 0.74
323.15 K, x2 = 0.4984 | 722.24 | 0.63
323.15 K, x2 = 0.5967 | 711.74 | 0.549
323.15 K, x2 = 0.6976 | 701.94 | 0.488
323.15 K, x2 = 0.7983 | 692.95 | 0.442
323.15 K, x2 = 0.8998 | 684.81 | 0.406
